Test results as given in ChEMBL document CHEMBL1201862, “PubChem BioAssay data set” (2004).
Calls of active or inactive are those of the source.

Assays:
[1] = target: Protein-tyrosine kinase 2-beta (Homo sapiens, UniProt Q14289);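 also: potency of inhibitors of PYK2 kinase phosphorylation of poly-GT substrate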
[2] = target: Cytochrome P450 2C19 (Homo sapiens, UniProt P33261); assay: Cytochrome panel assay with activity outcomes. Panel member name: p450-cyp2c19 Compounds with AC50 equal or less than 10 uM are considered active; type: functional; conditions: read-out: AC50
Chain of Cytochrome P450 2C19 (P33261 whole entry): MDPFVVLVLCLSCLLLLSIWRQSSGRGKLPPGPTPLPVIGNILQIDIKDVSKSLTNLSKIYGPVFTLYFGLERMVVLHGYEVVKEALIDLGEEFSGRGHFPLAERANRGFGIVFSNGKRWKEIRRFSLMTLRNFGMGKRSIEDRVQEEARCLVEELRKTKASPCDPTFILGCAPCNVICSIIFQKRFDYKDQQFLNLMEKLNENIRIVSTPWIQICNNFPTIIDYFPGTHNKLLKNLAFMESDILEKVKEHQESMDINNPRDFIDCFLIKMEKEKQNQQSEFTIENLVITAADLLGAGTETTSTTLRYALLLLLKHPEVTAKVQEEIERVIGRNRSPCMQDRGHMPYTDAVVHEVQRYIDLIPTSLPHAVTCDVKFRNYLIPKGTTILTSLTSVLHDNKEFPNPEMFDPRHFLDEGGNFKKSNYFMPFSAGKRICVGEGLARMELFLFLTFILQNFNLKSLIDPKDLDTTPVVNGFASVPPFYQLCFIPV

[3] = target: Cytochrome P450 2C9 (Homo sapiens, UniProt P11712)
Chain of Cytochrome P450 2C9 (P11712 whole entry): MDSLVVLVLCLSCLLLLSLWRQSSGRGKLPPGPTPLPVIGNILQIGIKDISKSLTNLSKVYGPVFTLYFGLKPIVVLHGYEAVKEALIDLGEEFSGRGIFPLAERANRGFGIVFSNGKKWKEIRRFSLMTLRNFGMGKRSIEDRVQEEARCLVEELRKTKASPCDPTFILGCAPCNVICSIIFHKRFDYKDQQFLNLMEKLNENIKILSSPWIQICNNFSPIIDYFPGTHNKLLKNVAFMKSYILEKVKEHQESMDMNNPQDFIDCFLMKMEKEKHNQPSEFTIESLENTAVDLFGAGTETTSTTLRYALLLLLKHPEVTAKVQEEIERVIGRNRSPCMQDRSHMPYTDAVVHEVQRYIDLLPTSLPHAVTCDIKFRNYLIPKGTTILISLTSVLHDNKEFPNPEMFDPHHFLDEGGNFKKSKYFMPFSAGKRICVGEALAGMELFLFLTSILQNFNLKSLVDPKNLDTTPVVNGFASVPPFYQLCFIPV

[4] = target: X-box-binding protein 1 (Homo sapiens, UniProt P17861); type: functional, Cricetulus griseus;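 also: confirmatory dose-response counter-screen serving a CHOP assay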
Chain of X-box-binding protein 1 (P17861 whole entry): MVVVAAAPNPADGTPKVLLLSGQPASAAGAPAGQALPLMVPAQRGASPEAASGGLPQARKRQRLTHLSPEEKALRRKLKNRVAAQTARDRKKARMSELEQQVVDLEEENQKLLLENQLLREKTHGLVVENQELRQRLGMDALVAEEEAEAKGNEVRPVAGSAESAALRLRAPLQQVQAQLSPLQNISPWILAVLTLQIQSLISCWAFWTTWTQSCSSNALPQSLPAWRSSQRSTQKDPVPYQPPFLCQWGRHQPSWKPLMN

[5] = system: HEK293; assay: Fluorescence-based counterscreen for potentiators or agonists of NPY-Y2: cell-based high-throughput dose response assay to identify inhibitors of cyclic nucleotide gated ion channel (CNGC) activity. In this assay, the parental HEK293 cell line transfected with a cyclic-nucleotide gated ion channel (CNGC)-based cAMP sensor is used to measure inhibition of isoproterenol-induced CNGC activity by test compound.; type: functional; conditions: Homo sapiens;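 also: stimulus is 1 µM isoproterenol at EC100 plus PDE inhibitor Ro 20-1724 at 25 µM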
[6] = system: Streptococcus sp. 'group A'; assay: growth inhibition of control SK(-) GAS strain, dose response, counter-screen for streptokinase expression inhibitor project, luminescence, kanamycin, BacTiterGlo, confirmation (AID 1900); type: functional, organism-based
[7] = target: T1, Neuropeptide Y receptor type 2 (Homo sapiens, UniProt P49146); assay: Fluorescence-based cell-based high-throughput dose response assay for agonists of NPY-Y2. [Related pubchem assays: 1703 (Screening assay (CNGC inhibitors).), 1359 (Screening assay (NPY-Y2 potentiators or agonists).), 1304 (Screening assay (NPY-Y1 potentiators or agonists).), 1710 (Screening assay (NPY-Y2 agonists).), 1791 (Summary AID.)]; type: functional
T1 sequence (P49146 whole entry): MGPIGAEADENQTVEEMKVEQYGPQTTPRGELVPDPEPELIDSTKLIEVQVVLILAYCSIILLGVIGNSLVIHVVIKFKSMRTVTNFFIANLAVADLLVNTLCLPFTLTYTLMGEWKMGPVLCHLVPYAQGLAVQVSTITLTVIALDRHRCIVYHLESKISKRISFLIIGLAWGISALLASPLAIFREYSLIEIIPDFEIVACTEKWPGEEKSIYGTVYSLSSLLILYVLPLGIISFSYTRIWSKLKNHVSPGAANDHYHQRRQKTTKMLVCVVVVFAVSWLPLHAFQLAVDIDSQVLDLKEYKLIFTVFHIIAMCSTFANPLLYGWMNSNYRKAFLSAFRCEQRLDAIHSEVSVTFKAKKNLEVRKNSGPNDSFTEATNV

[8] = target: T2, Streptokinase A (Streptococcus pyogenes serotype M1, UniProt P10520); assay: S. pyogenes streptokinase expression inhibitors, potency, dose response, plasminogen activation absorbance, OD405 (AID 1914); type: functional, Streptococcus pyogenes M1 GAS;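 also: secreted streptokinase activity via plasminogen activation per viability signal from cell pellet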
T2 sequence (P10520 whole entry): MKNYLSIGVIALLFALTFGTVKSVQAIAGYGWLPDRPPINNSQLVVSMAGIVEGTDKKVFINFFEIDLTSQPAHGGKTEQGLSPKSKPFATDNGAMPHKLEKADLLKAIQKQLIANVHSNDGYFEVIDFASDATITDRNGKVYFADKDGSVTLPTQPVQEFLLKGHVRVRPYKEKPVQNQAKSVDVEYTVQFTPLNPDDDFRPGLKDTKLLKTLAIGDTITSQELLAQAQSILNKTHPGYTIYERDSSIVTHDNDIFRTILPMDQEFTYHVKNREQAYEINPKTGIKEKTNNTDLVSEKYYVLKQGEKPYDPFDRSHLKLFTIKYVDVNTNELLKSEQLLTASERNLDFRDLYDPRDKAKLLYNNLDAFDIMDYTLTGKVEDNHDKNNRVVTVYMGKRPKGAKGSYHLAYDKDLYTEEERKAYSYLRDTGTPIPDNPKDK

[9] = target: T3, Neuropeptide Y receptor type 1 (Homo sapiens, UniProt P25929); assay: Fluorescence-based counterscreen for agonists of NPY-Y2: cell-based high-throughput dose response assay for agonists of NPY-Y1.; type: functional
T3 sequence (P25929 whole entry): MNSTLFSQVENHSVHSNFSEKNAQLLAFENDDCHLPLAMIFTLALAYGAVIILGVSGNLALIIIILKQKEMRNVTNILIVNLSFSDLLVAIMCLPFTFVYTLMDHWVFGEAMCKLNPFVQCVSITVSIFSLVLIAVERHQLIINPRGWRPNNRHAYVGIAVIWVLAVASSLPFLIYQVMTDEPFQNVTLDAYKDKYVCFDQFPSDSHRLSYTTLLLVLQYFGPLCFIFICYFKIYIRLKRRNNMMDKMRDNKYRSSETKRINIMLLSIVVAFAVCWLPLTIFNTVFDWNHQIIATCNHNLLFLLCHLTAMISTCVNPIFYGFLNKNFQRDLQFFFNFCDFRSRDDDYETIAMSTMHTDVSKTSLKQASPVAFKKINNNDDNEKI

[10] = system: Streptococcus; assay: Group A Streptococcus viability loss, dose response, counter-screen for streptokinase expression inhibitor project, luminescence, BacTiterGlo (AID 1915); type: functional, organism-based;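 also: potency for reduction of bacterial viability or growth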
[11] = system: INS1; assay: beta cell apoptosis inhibitors, cytokine rescue, dose response, luminescence, retest (AID 449756); type: functional, cell-based; conditions: Rattus norvegicus;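 also: cell death triggered by IL-1 beta plus TNF-alpha plus IFN-gamma mixture; protective hits raise ATP signal compared with cytokine alone wells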
[12] = target: T4, Estrogen receptor beta (Homo sapiens, UniProt Q92731);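 also: recombinant ER-beta bound to coactivator SRC1 peptide in presence of estradiol agonist; inhibitors block coactivator peptide binding and lower the FRET signal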
T4 sequence (Q92731 whole entry): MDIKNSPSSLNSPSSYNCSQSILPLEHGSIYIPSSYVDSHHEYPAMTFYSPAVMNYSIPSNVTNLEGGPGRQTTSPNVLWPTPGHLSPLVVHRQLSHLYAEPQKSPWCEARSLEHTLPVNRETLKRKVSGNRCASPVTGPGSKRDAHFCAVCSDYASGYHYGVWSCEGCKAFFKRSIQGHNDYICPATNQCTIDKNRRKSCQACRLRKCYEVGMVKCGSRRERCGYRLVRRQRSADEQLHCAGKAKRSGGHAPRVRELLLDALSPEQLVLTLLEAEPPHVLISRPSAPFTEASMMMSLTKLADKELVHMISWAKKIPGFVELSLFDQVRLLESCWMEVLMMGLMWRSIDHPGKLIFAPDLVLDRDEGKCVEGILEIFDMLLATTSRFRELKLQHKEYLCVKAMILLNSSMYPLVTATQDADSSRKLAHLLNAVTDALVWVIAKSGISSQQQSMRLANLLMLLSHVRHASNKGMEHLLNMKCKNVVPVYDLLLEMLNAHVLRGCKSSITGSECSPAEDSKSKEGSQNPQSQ

[13] = target: T4, Estrogen receptor beta; assay: ERβ–SRC-3 coactivator interaction inhibitors, confirmation, orthogonal assay, biochemical, ELISA, streptavidin-HRP readout (AID 1060)
[14] = target: DNA dC->dU-editing enzyme APOBEC-3A (Homo sapiens, UniProt P31941); assay: Dose Response confirmation of small molecule APOBEC3A DNA Deaminase Inhibitors via a fluorescence-based single-stranded DNA deaminase assay. [Related pubchem assays (depositor defined):AID493011, AID493024]; type: functional
Chain of DNA dC->dU-editing enzyme APOBEC-3A (P31941 whole entry): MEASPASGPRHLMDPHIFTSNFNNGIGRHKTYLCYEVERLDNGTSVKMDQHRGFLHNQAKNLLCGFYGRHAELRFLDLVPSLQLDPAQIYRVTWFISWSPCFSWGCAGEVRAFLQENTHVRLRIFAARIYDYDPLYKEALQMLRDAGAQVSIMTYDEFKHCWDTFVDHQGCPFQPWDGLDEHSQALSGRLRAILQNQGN

[15] = target: DNA dC->dU-editing enzyme APOBEC-3G (Homo sapiens, UniProt Q9HC16); type: functional;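 also: Dose-response counterscreen measuring inhibition of APOBEC3G DNA deaminase activity, run while confirming APOBEC3A inhibitors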
Chain of DNA dC->dU-editing enzyme APOBEC-3G (Q9HC16 whole entry): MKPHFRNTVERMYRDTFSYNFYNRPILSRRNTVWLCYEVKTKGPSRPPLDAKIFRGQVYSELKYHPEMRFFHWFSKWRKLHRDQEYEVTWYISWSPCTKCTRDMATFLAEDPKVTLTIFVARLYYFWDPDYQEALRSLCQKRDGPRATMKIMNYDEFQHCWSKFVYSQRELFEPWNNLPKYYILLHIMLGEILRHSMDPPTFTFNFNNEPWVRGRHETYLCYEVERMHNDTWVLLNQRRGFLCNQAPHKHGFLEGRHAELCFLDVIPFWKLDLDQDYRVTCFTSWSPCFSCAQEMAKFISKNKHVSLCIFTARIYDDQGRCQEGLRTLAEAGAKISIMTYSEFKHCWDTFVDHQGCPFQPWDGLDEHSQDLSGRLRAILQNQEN

[16] = system: BJ; assay: cytotoxicity toward BJ-TERT fibroblasts, dose response, cell-based, RAS-independent, luminescence (AID 1933); type: functional, Homo sapiens; conditions: Homo sapiens, BJ
[17] = target: Luciferin 4-monooxygenase (Photinus pyralis, UniProt P08659); assay: Counter Screen for Luciferase-based Assay Positives. [Related pubchem assays: 620, 618, 411 ]
Chain of Luciferin 4-monooxygenase (P08659 whole entry): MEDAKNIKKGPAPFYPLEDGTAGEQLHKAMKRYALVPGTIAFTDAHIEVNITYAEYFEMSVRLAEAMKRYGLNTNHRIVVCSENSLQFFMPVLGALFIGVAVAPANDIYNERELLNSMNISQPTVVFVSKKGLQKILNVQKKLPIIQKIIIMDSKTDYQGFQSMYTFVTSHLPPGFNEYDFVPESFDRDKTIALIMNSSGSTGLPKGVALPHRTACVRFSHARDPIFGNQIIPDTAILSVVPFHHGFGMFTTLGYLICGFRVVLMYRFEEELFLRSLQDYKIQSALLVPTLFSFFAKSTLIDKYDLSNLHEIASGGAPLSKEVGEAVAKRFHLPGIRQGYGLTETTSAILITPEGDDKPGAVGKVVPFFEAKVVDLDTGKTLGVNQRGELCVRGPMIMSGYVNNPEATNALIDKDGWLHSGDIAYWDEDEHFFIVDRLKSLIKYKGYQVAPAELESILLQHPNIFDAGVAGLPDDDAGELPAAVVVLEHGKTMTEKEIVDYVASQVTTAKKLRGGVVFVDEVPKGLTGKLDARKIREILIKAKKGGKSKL

[18] = system: BJ; assay: cells; type: functional, cell-based, Homo sapiens; conditions: Homo sapiens, BJ
[19] = system: HT-1080; assay: cytotoxicity in HT1080 fibrosarcoma cells, cell-based, fluorescence readout (AID 620); type: functional; conditions: Homo sapiens
[20] = system: BJ; assay: cytotoxicity toward BJ-TERT-LT-ST fibroblasts, dose response, cell-based, RAS-independent, luminescence (AID 1935); type: functional, Homo sapiens; conditions: Homo sapiens, BJ;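 also: BJ fibroblasts immortalized with TERT plus LT and ST oncogenes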
[21] = cytotoxicity toward DRD oncogenic fibroblasts, dose response, cell-based, non-viral oncogenic, luminescence (AID 1934); type: functional; conditions: Homo sapiens
[22] = cytotoxicity in HEK-293T cells, dose response, cytotoxicity control for TCR NF-kB inhibitor project, luminescence, T-cell screen hits (AID 489026); type: functional, cell-based;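 also: cells exposed to compound about 14 hours before the viability readout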
[23] = target: Photoreceptor-specific nuclear receptor (Homo sapiens, UniProt Q9Y5X4); type: functional;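 also: potency for compounds that break the NR2E3 corepressor complex and count as activators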
Chain of Photoreceptor-specific nuclear receptor (Q9Y5X4 whole entry): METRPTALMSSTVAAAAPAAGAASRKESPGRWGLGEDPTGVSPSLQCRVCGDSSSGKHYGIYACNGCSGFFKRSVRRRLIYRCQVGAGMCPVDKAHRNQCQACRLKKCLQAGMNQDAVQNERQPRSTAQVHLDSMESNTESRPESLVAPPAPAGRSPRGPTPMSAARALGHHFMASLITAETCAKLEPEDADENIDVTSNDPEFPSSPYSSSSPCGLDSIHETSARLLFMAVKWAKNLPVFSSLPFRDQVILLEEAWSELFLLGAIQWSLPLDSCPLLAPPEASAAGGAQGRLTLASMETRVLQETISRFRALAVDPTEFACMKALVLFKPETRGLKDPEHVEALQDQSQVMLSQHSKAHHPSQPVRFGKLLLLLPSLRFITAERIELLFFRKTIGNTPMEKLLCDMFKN

[24] = target: Peroxisome proliferator-activated receptor gamma/Nuclear receptor corepressor 2 (Homo sapiens, UniProt P37231+Q9Y618); type: functional

Chain of Protein-tyrosine kinase 2-beta (Q14289 whole entry): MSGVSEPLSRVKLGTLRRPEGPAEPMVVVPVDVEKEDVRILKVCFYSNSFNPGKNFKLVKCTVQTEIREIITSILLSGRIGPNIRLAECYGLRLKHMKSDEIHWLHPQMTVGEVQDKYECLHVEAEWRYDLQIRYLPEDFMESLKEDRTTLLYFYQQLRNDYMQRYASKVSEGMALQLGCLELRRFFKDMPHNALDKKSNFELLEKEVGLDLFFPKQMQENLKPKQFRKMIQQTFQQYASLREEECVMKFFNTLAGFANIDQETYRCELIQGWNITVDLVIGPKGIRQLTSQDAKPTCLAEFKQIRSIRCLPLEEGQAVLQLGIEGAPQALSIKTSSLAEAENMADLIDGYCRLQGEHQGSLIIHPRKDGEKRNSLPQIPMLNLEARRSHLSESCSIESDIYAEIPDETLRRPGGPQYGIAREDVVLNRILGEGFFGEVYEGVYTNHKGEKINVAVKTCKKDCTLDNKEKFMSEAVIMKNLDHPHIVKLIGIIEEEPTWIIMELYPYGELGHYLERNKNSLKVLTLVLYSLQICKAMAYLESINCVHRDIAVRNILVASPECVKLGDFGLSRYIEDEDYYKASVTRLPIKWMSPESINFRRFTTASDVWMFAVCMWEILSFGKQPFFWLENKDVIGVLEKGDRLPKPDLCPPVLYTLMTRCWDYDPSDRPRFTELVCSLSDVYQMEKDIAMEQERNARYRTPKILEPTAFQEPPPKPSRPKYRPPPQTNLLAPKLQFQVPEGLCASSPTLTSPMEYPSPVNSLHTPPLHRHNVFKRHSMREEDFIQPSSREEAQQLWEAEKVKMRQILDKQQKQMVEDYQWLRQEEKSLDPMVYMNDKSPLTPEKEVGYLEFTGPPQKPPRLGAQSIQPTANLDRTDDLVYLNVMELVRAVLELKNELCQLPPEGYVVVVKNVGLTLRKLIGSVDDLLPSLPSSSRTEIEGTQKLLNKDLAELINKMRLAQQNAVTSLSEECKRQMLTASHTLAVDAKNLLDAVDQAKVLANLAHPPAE

Cc1ccc(C(=O)COC(=O)c2ccc3c(c2)C(=O)N(c2cccc4ncccc24)C3=O)cc1C
IC50 [1]: 7.66 µM (active) | AC50 [2]: 15.8 µM (inconclusive) | AC50 [3]: 0.708 µM (inconclusive)

CCOC(=O)c1c(NC(=O)Cc2cccs2)sc(C(=O)NC2CCCCC2)c1C
Absolute IC50 (XBP1) [4]: 10 µM

O=C(/C(=N/Nc1cccc([N+](=O)[O-])c1)C(=O)C(F)(F)F)c1ccc(Br)cc1
EC50 [5]: 12.2 µM (not active) | EC50 [6]: 7.63 µM (active) | EC50 [7]: 12.1 µM (not active) | EC50 [8]: 6.23 µM (active) | EC50 [9]: 10.6 µM (not active) | EC50 [10]: 5.97 µM (active) | AC50 [11]: 6.21 µM (active)

COCCCn1c(Cc2csc(Nc3cccc(Cl)c3)n2)nnc1SCC(=O)OC1CCCCC1
IC50 [12]: < 1.56 µM (active) | IC50 [13]: 0.0434 µM (not active) | IC50 [14]: 20.8 µM (active) | IC50 [15]: 38.8 µM (active)

CCCC(=O)C1=C(Nc2ccc(OC)cc2OC)CC(C)(C)CC1=O
EC50 [16]: 13.1 µM (active) | EC50 [17]: 0.55 µM (active) | EC50 [18]: 29.9 µM (active) | EC50 [19]: 17.3 µM (active) | EC50 [20]: 4.43 µM (active) | EC50 [21]: 4.69 µM (active) | IC50 [22]: > 80 µM (inactive)

COc1cccc(CNC(=O)COC(=O)/C(C#N)=C/c2ccc(N(C)C)cc2)c1
IC50 [23]: > 39.8 µM (not active) | IC50 [24]: 29.4 µM (not active)
